US9809750B2, “Liquid crystal composition” (Nanoegg Research Laboratories, Inc., priority 2009, dated 2017)
One block for each compound: values may come before it.

Procedure: Then, SH556 (phenyl-modified silicone oil) was added to this liquid crystal composition to prepare the liquid crystal composition of the present invention.
(§1) The solubilized concentration (saturated concentration of solubilization) of oil was measured by sample appearance, for example, cloudiness or phase separation.
Then, a mixed oil of SH556 and squalane or a mixed oil of KF50-100CS and squalane was added to the mixed surfactant aqueous solution, thereby preparing the liquid crystal compositions of the present invention. The weight ratio of a phenyl-modified silicone oil (SH556 or KF50-100CS) and squalane is 1:1 in each mixed oil. Moreover, as a comparative example, squalane alone was added to the mixed surfactant aqueous solution to prepare a liquid crystal composition for the comparative example.
The solubilized concentration of oil (mixed oil or squalane) in each liquid crystal composition was evaluated. The solubilized concentration (saturated concentration of solubilization) of oil was measured by sample appearance, for example, cloudiness or phase separation.
Then, a mixed oil of SH556 and squalane was added to each mixed surfactant aqueous solution, thereby preparing the liquid crystal compositions of the present invention. The weight ratio of SH556 and squalane is 1:1 in the mixed oil. Moreover, as comparative examples, squalane alone was added to the mixed surfactant aqueous solutions to prepare liquid crystal compositions for the comparative examples.
(§2) The solubilized concentration of oil (a mixed oil of SH556 and squalane or squalane) in each liquid crystal composition was evaluated. The solubilized concentration (saturated concentration of solubilization) of oil was measured by sample appearance, for example, cloudiness or phase separation.
Then, a mixed oil of SH556 and α-lipoic acid or a mixed oil of SH556 and oleic acid was added to the mixed surfactant aqueous solution, thereby preparing the liquid crystal compositions of the present invention. The weight ratio of SH556 and a fatty acid (α-lipoic acid or oleic acid) is 1:1 in each mixed oil.
as §2, with “α-lipoic acid, a mixed oil of SH556 and oleic acid, α-lipoic acid” for “squalane”, “oleic acid)” for “squalane)”
as §1

solubilized concentration of cetyl isooctanoate: up to 12.96 % by weight
Compound: CCCCCCCCCCCCCCCCOC(=O)CCCCC(C)C [cetyl isooctanoate]

solubilized concentration of oil: at least 25 % by weight
Compound: phenyl trimethicone [SH556]
effect of enhancing solubility of squalane: showed the effect of enhancing solubility of squalane

solubilized concentration of oil: could not be dissolved | solubilized concentration of squalane: up to 3.125 % by weight
Compound: CC(C)CCCC(C)CCCC(C)CCCCC(C)CCCC(C)CCCC(C)C (stereo not drawn) [squalane]

solubilized concentration of oleic acid: up to 11.7 % by weight
Compound: CCCCCCCC/C=C\CCCCCCCC(=O)O [oleic acid]
